The first assay concerns the target T1, purified catalytic domain of recombinant human TACE (rhTACEc) (Homo sapiens, UniProt P78536, N452Q/S266A).
T1 construct: rhTACEc, Residue 215 to 477 with two mutation (S266A and N4520) and a 6×His tail; 6xHis (C); made in house; host or cells: baculovirus/Hi5 insect cells
The experiment in a line: TACE kinetic assay, cleavage of internally quenched fluorescent peptide substrate SPDL-3. The conditions noted are these: TACE inhibition, Table 1001; read-out: Ki Rating. It counts as biochemical.
T1 sequence (P78536 215-477 S266A/N452Q limits assumed): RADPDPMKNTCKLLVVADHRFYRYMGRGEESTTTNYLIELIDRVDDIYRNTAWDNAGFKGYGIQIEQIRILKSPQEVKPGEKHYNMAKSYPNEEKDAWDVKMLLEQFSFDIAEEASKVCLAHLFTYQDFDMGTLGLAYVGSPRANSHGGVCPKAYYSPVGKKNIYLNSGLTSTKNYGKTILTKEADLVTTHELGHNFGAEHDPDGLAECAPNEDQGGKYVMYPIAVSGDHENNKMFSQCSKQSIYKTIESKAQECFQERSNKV
For `COc1ccc2c(c1)C(=O)N(C[C@@]1(C#Cc3cccnc3C)NC(=O)NC1=O)C2` [Compound 1003], the inhibition constant (Ki) is less than 5 nM.
For `O=C1NC(=O)[C@@](C#Cc2cccnc2)(CN2Cc3ccc(Cl)cc3C2=O)N1` [Compound 1004], the Ki is less than 5 nM.
In the case of `COc1ccc2c(c1)C(=O)N(C[C@@]1(C#Cc3cncc(C)c3)NC(=O)NC1=O)C2` [Compound 1005], the inhibitory constant (Ki) is less than 5 nM.

The assay is the same for the next values; noted with them: TACE; class letters A-D; read-out: Ki Rating.
For the molecule `COc1ccc2c(c1)C(=O)N(C[C@@]1(C#Cc3cncc(Cl)c3)NC(=O)NC1=O)C2` [Compound 1006], the inhibitory constant (Ki) was less than 5 nM.
With `COc1ccc2c(c1)C(=O)N(C[C@@]1(C#Cc3ccc(F)cc3C)NC(=O)NC1=O)C2` [Compound 1007], the inhibition constant (Ki) was less than 5 nM.
With `COc1ccc2c(c1)C(=O)N(C[C@@]1(C#Cc3ccc4nccnc4c3)NC(=O)NC1=O)C2` [Compound 1008], the Ki was less than 5 nM.
As to `COc1ccc2c(c1)C(=O)N(C[C@@]1(C#Cc3ccc4nc(N)[nH]c4c3)NC(=O)NC1=O)C2` [Compound 1009], the Ki is less than 5 nM.
The same measure, in the same setting: then `COc1ccc2c(c1)C(=O)N(C[C@@]1(C#Cc3ccc4c(c3)COC4=O)NC(=O)NC1=O)C2` [Compound 1010], with less than 5 nM; and `COc1ccc2c(c1)C(=O)N(C[C@@]1(C#Cc3ccc4nc(C)[nH]c4c3)NC(=O)NC1=O)C2` [Compound 1011], with less than 5 nM.
Regarding `COc1ccc2c(c1)C(=O)N(C[C@@]1(C#Cc3ccc4[nH]cnc4c3)NC(=O)NC1=O)C2` [Compound 1012], the Ki is less than 5 nM.
`COc1ccc2c(c1)C(=O)N(C[C@@]1(C#Cc3cnc4[nH]c(=O)[nH]c4c3)NC(=O)NC1=O)C2` [Compound 1013]: the Ki is less than 5 nM.
Take `COc1ccc2c(c1)C(=O)N(C[C@@]1(C#Cc3cccc4[nH]ncc34)NC(=O)NC1=O)C2` [Compound 1014]: the inhibition constant Ki is less than 5 nM.
Turning to `COc1ccc2c(c1)C(=O)N(C[C@@]1(C#Cc3cccc4cn[nH]c34)NC(=O)NC1=O)C2` [Compound 1015], the Ki was less than 5 nM.
On to `COc1ccc2c(c1)C(=O)N(C[C@@]1(C#Cc3ccc4[nH]c(=O)sc4c3)NC(=O)NC1=O)C2` [Compound 1016], for which the Ki was less than 5 nM.
For `COc1ccc2c(c1)C(=O)N(C[C@@]1(C#Cc3ccc4c(c3)sc(=N)n4C)NC(=O)NC1=O)C2` [Compound 1017], the Ki was less than 5 nM.
On the same count and under the same terms, with `COc1ccc2c(c1)C(=O)N(C[C@@]1(C#Cc3cccnc3C#N)NC(=O)NC1=O)C2` [Compound 1018] the figure was less than 5 nM; with `COc1ccc2c(c1)C(=O)N(C[C@@]1(C#Cc3ccc4c(c3)C(=O)NC4=O)NC(=O)NC1=O)C2` [Compound 1019], less than 5 nM.
Same read-out and setting: with `COc1ccc2c(c1)C(=O)N(C[C@]1(C#Cc3ccc(SC(F)(F)F)cc3)NC(=O)NC1=O)C2` [Compound 1036] the figure was greater than 100 nM; with `O=C1NC(=O)[C@@](C#Cc2ccc(F)cc2)(CN2Cc3ccc(F)cc3C2=O)N1` [Compound 1037], less than 5 nM.
Regarding `COc1ccc2c(c1)C(=O)N(C[C@@]1(C#Cc3ccc(SC(F)(F)F)cc3)NC(=O)NC1=O)C2` [Compound 1038], the Ki is less than 5 nM.
For the molecule `COc1ccc2c(c1)C(=O)N(C[C@@]1(C#Cc3ccc(S(=O)(=O)C(F)(F)F)cc3)NC(=O)NC1=O)C2` [Compound 1039], the Ki was in the range of 5 to 25 nM.
As to `COc1ccc2c(c1)C(=O)N(C[C@@]1(C#Cc3cccc(O)c3)NC(=O)NC1=O)C2` [Compound 1040], the Ki was less than 5 nM.
In the case of `O=C1NC(=O)[C@@](C#Cc2cccc(F)c2)(CN2Cc3ccc(F)cc3C2=O)N1` [Compound 1041], the Ki is less than 5 nM.
As to `O=C1NC(=O)[C@@](C#Cc2ccc(F)cc2F)(CN2Cc3ccc(F)cc3C2=O)N1` [Compound 1042], the inhibitory constant (Ki) is less than 5 nM.
On to `COc1ccc(C#C[C@]2(CN3Cc4ccc(OC)cc4C3=O)NC(=O)NC2=O)cc1` [Compound 1043], for which the inhibitory constant (Ki) was less than 5 nM.
With `COc1ccc2c(c1)C(=O)N(C[C@@]1(C#Cc3cccc(C)c3)NC(=O)NC1=O)C2` [Compound 1044], the Ki is less than 5 nM.
For `COc1ccc2c(c1)C(=O)N(C[C@@]1(C#Cc3ccc(C#N)cc3)NC(=O)NC1=O)C2` [Compound 1045], the Ki is less than 5 nM.
For `CCOc1cccc(C#C[C@]2(CN3Cc4ccc(OC)cc4C3=O)NC(=O)NC2=O)c1` [Compound 1046], the Ki is less than 5 nM.
As to `COc1ccc2c(c1)C(=O)N(C[C@@]1(C#Cc3ccc4c(c3)CCO4)NC(=O)NC1=O)C2` [Compound 1047], the inhibitory constant (Ki) is less than 5 nM.
On the same count and under the same terms, then `COc1ccc2c(c1)C(=O)N(C[C@@]1(C#Cc3cccc(CO)c3)NC(=O)NC1=O)C2` [Compound 1048], with less than 5 nM; and `COc1ccc2c(c1)C(=O)N(C[C@@]1(C#Cc3ccc(Cl)s3)NC(=O)NC1=O)C2` [Compound 1049], with less than 5 nM.
Take `CCOc1ccc(C#C[C@]2(CN3Cc4ccc(OC)cc4C3=O)NC(=O)NC2=O)cc1` [Compound 1050]: the inhibition constant Ki was less than 5 nM.
On the same count and under the same terms, with `O=C1NC(=O)[C@](C#Cc2cccc(F)c2)(CN2Cc3ccc(F)cc3C2=O)N1` [Compound 1051] the figure was 25 to 100 nM; with `O=C1NC(=O)[C@](C#Cc2ccc(F)cc2F)(CN2Cc3ccc(F)cc3C2=O)N1` [Compound 1052], 25 to 100 nM.
In the case of `COc1ccc2c(c1)C(=O)N(C[C@@]1(C#Cc3ccc4oc(C)cc4c3)NC(=O)NC1=O)C2` [Compound 1053], the Ki was less than 5 nM.
With `COc1ccc2c(c1)C(=O)N(C[C@@]1(C#Cc3cc(Cl)ccc3OC)NC(=O)NC1=O)C2` [Compound 1054], the Ki is less than 5 nM.
The same measure, in the same setting: with `COCc1cccc(C#C[C@]2(CN3Cc4ccc(OC)cc4C3=O)NC(=O)NC2=O)c1` [Compound 1055] the figure was less than 5 nM; with `COc1ccc2c(c1)C(=O)N(C[C@@]1(C#Cc3c(OC)ccc4c(C#N)cccc34)NC(=O)NC1=O)C2` [Compound 1056], less than 5 nM; with `COc1ccc2c(c1)C(=O)N(C[C@@]1(C#Cc3ccc(OC(C)C)cc3)NC(=O)NC1=O)C2` [Compound 1057], less than 5 nM.
For the molecule `COc1ccc2c(c1)C(=O)N(C[C@@]1(C#Cc3ccc(OCC4CC4)cc3)NC(=O)NC1=O)C2` [Compound 1058], the Ki is less than 5 nM.
In the case of `COc1ccc2c(c1)C(=O)N(C[C@@]1(C#Cc3cccc(COCC4CC4)c3)NC(=O)NC1=O)C2` [Compound 1059], the Ki is less than 5 nM.
Take `COc1ccc2c(c1)C(=O)N(C[C@@]1(C#Cc3ccc(C(C)=O)s3)NC(=O)NC1=O)C2` [Compound 1060]: the Ki is less than 5 nM.
On to `COc1ccc2c(c1)C(=O)N(C[C@@]1(C#Cc3ccc(C(C)O)s3)NC(=O)NC1=O)C2` (stereo partly shown) [Compound 1061], for which the Ki is less than 5 nM.
As for `COc1ccc2c(c1)C(=O)N(C[C@@]1(C#Cc3ccccc3C)NC(=O)NC1=O)C2` [Compound 1062], the Ki was less than 5 nM.
`COc1ccc2c(c1)C(=O)N(C[C@@]1(C#Cc3cncc(O)c3)NC(=O)NC1=O)C2` [Compound 1063]: the Ki was less than 5 nM.
In the case of `COc1ccc2c(c1)C(=O)N(C[C@@]1(C#Cc3ccc(C#N)s3)NC(=O)NC1=O)C2` [Compound 1064], the Ki is less than 5 nM.
The same measure, in the same setting: with `COc1ccc2c(c1)C(=O)N(C[C@@]1(C#Cc3ccc(C(=O)NC4CC4)cc3)NC(=O)NC1=O)C2` [Compound 1065] the figure was less than 5 nM.
For `COc1ccc2c(c1)C(=O)N(C[C@]1(C#Cc3cncc(O)c3)NC(=O)NC1=O)C2` [Compound 1066], the Ki was greater than 100 nM.
Take `COc1ccc2c(c1)C(=O)N(C[C@]1(C#Cc3ccc(C(=O)NC4CC4)cc3)NC(=O)NC1=O)C2` [Compound 1067]: the Ki was greater than 100 nM.
On to `COc1ccc2c(c1)C(=O)N(C[C@]1(C#Cc3ccc(C#N)s3)NC(=O)NC1=O)C2` [Compound 1068], for which the inhibitory constant (Ki) is greater than 100 nM.
As to `COc1ccc2c(c1)C(=O)N(C[C@@]1(C#Cc3ccc4[nH]c(=O)[nH]c4c3)NC(=O)NC1=O)C2` [Compound 1069], the Ki was less than 5 nM.
Still for that read-out and setting: with `COc1ccc2c(c1)C(=O)N(C[C@@]1(C#Cc3csc(CN)c3)NC(=O)NC1=O)C2` [Compound 1070] the figure was less than 5 nM.
Same read-out and setting: then `COc1ccc2c(c1)C(=O)N(C[C@@]1(C#Cc3cc(Cl)c(Br)s3)NC(=O)NC1=O)C2` [Compound 1071], with less than 5 nM; and `COc1ccc2c(c1)C(=O)N(C[C@@]1(C#Cc3ccc(CO)s3)NC(=O)NC1=O)C2` [Compound 1072], with less than 5 nM.
For the molecule `COc1ccc2c(c1)C(=O)N(C[C@]1(C#Cc3ccc(C(C)N)cc3)NC(=O)NC1=O)C2` (stereo partly shown) [Compound 1073], the inhibitory constant (Ki) is greater than 100 nM.
`CNCc1cc(C#C[C@@]2(CN3Cc4ccc(OC)cc4C3=O)NC(=O)NC2=O)cs1` [Compound 1074]: the Ki was greater than 100 nM.
Take `COc1ccc2c(c1)C(=O)N(C[C@]1(C#Cc3ccc(C(C)O)cc3)NC(=O)NC1=O)C2` (stereo partly shown) [Compound 1075]: the Ki was greater than 100 nM.
Same read-out and setting: then `COc1ccc2c(c1)C(=O)N(C[C@@]1(C#Cc3ccc([C@H](C)N)cc3)NC(=O)NC1=O)C2` [Compound 1076], with less than 5 nM.
For the molecule `CNCc1cc(C#C[C@@]2(CN3Cc4ccc(OC)cc4C3=O)NC(=O)NC2=O)cs1` [Compound 1077], the Ki was less than 5 nM.
Take `COc1ccc2c(c1)C(=O)N(C[C@@]1(C#Cc3ccc(C(C)O)cc3)NC(=O)NC1=O)C2` (stereo partly shown) [Compound 1078]: the Ki was less than 5 nM.
On to `COc1ccc2c(c1)C(=O)N(C[C@@]1(C#Cc3cnccc3CO)NC(=O)NC1=O)C2` [Compound 1079], for which the inhibitory constant (Ki) is less than 5 nM.
For `COc1ccc2c(c1)C(=O)N(C[C@@]1(C#Cc3sccc3Cl)NC(=O)NC1=O)C2` [Compound 1080], the Ki was less than 5 nM.
In the case of `CON=Cc1ccc(C#C[C@@]2(CN3Cc4ccc(OC)cc4C3=O)NC(=O)NC2=O)cc1` [Compound 1081], the Ki was greater than 100 nM.
On to `CO/N=C(/C)c1ccc(C#C[C@]2(CN3Cc4ccc(OC)cc4C3=O)NC(=O)NC2=O)s1` [Compound 1082], for which the Ki is less than 5 nM.
For the molecule `CO/N=C(\C)c1ccc(C#C[C@]2(CN3Cc4ccc(OC)cc4C3=O)NC(=O)NC2=O)s1` [Compound 1083], the Ki is less than 5 nM.

The same assay, now with this note: rhTACEc 70 pM, 30 μM SPDL-3, 90 min pre-incubation at 25° C.; read-out: Ki (nM), TACE inhibitory activity.
With `COc1ccc2c(c1)C(=O)N(C[C@@]1(C#Cc3cccnc3C)NC(=O)NC1=O)C2` [Compound 1003], the Ki came to 0.11 nM.
Take `COc1ccc2c(c1)C(=O)N(C[C@@]1(C#Cc3ccc4nc(N)[nH]c4c3)NC(=O)NC1=O)C2` [Compound 1009]: the Ki was 1.33 nM.

Usually Ki stands for a measure of affinity in units of concentration, obtained from inhibition or displacement.

These data come from patent publication US7772263B2, “Compounds for the treatment of inflammatory disorders” (Schering Corporation, priority 2006, dated 2010).
